# Data from paper PMC7521880 (European Journal of Medicinal Chemistry, 2020).
# System: varicella-zoster virus (VZV, TK+ Oka strain)
# Type: cell-based
# Settings: VZV in HEL cells; strain not specified
row,SMILES,"Selectivity index (SI), ratio CC50 for HEL cells / EC50"
1,"CC(=O)OC[C@H]1O[C@@H](n2cc3c(C#CC4(O)c5ccccc5-c5ccccc54)c(-c4ccc(C)cc4)oc3nc2=O)C[C@@H]1OC(C)=O [Compound 6c, 3-(3′,5′-di-O-acetyl-2′-deoxy-β-D-ribofuranosyl)-5-((9-hydroxy-9H-fluoren-9-yl)ethynyl)-6-(4-methylphenyl)-2,3-dihydrofuro[2,3-d]pyrimidin-2-one]",≤ 1
2,"CC(=O)OC[C@H]1O[C@@H](n2cc3c(C#Cc4ccc(C)cc4)c(-c4ccc(C)cc4)oc3nc2=O)C[C@@H]1OC(C)=O [Compound 6h, 3-(3′,5′-di-O-acetyl-2′-deoxy-β-D-ribofuranosyl)-6-(4-methylphenyl)-5-((4-methylphenyl)ethynyl)-2,3-dihydrofuro[2,3-d]pyrimidin-2-one]",≤ 1
3,"CCCCCc1ccc(-c2oc3nc(=O)n([C@H]4C[C@H](OC(C)=O)[C@@H](COC(C)=O)O4)cc3c2C#CCO)cc1 [Compound 7a, 3-(3′,5′-di-O-acetyl-2′-deoxy-β-D-ribofuranosyl)-5-(3-hydroxyprop-1-yn-1-yl)-6-(4-pentylphenyl)-2,3-dihydrofuro[2,3-d]pyrimidin-2-one]",≤ 1
4,"CCCCCc1ccc(-c2oc3nc(=O)n([C@H]4C[C@H](OC(C)=O)[C@@H](COC(C)=O)O4)cc3c2C#CCCO)cc1 [Compound 7b, 3-(3′,5′-di-O-acetyl-2′-deoxy-β-D-ribofuranosyl)-5-(4-hydroxybut-1-yn-1-yl)-6-(4-pentylphenyl)-2,3-dihydrofuro[2,3-d]pyrimidin-2-one]",≤ 1
